Columns and labels:
[1] = Pharmacokinetics of MC and its metabolites in rat plasma after a single oral dose of MC (UHPLC-MS/MS); assay type: in vivo, Sprague Dawley rats; details: for Tmax / half-life / Cmax / AUC(0-t): male, Sprague Dawley, single oral (intragastric) 100 mg/kg MC; for Tmax / half-life: n = 6; for Cmax: n = 6, metabolites quantified with the MC calibration curve; for AUC(0-t): n = 6, non-compartmental, metabolites quantified with the MC calibration curve, read-out: AUC0–48h; for AUC0–48h fold less than that of MC / Concentration in plasma samples relative to limit of quantification: single oral 100 mg/kg MC
Experimental: Sprague Dawley rats (male, 220–250 g) were purchased from the SPF Biotechnology Co., Ltd. (Beijing, China). Animals were acclimated under controlled conditions (temperature 22 °C ± 2 °C, humidity 50%–60%, 12 h light cycle) with unlimited fodder and water access for 7 days. The animal experiments were approved by the Animal Experiment Ethics Review Committee of Jiangsu Vocational College of Medicine, Yancheng, China (LLSQ-2021-031106).
After fasting overnight, six rats were orally administered 100 mg/kg MC suspended in 0.5% carboxymethyl cellulose sodium solution (10.0 mg/mL). Blood samples (about 300 μL) were collected into heparinized polythene tubes from the suborbital vein at 0, 0.25, 0.5, 1, 2, 3, 4, 8, 12, 24, 36 and 48 h after administration. All samples were immediately centrifuged at 6,125 g for 5 min at 4 °C to acquire plasma. The plasma samples were preserved at − 80 °C until further analysis.
For the measurement of the concentrations of MC and its metabolites, three times volume of methanol, containing 20 µL IS (puerarin, 2,160.0 ng/mL), were added to 100 µL plasma samples to precipitate protein. After vortexing for 2 min, the mixtures were centrifuged at 6,125 g for 10 min at 4 °C. The obtained supernatants were transferred to fresh tubes and allowed to be dried at room temperature by a nitrogen blowing instrument. Then, the remaining residues were re-dissolved with 100 µL methanol–water (80:20, v/v). Following centrifugation at 16,173 g for 10 min, the supernatants were transferred and used for UHPLC/[…] assessment. The injection volume of each sample was 1 μL.
The UHPLC-MS system comprised of an Acquity UPLC system (Waters, Milford, United States) and Waters TQD tandem mass spectrometer equipped with an electrospray ionization (ESI) source. A Waters ACQUITY BEH C18 column (100 × 2.1 mm, 1.7 μm, Waters, Milford, United States) was used for the chromatography separation. The column temperature was set to 40 °C. The mobile phase was composed of 0.1% formic acid in water (A) and 0.1% formic acid in acetonitrile (B) with a fixed flow rate at 0.4 mL/min. A gradient elution program was used as follows: 0–1.5 min, 5%–20% B; 1.5–5 min, 20%–30% B; 5–7 min, 30%–95% B; 7–9 min, 95% B; 9–11 min, 95% B.
The MS tune parameters were set as mentioned below. The desolvation of the source temperatures was set at 500 °C. The flow rate of nebulization gas was 650 L/h. The capillary voltage was set at 2.8 kV in the positive ionization mode. The cone voltages were maintained at 35 V for all the tested ingredients. All data were obtained via the multiple reaction monitoring (MRM) ion mode. The range of m/z for the data collection was set at 100–1,500 Da. Transitions, cone voltage and a collision energy of MC and its metabolites were optimized (Table 2). The mass spectrum of MC and the chemical structures of its MS/MS fragments is shown in Figure 4, and The mass spectrum of puerarin and the chemical structures of its MS/MS fragments is shown in Figure 5. MassLynx™ software version 4.1 was used for data acquisition and TargetLynx™ (Waters, Milford, MA, United States) was applied to quantitation.
The concentrations of MC in the collected plasma samples were quantified by the established calibration curve based on peak areas of corresponding components. Owing to the lack of corresponding standards, calibration curves for the metabolites were not established. It has been reported that the concentrations of the metabolites could be quantified according to calibration curve of parent drug. This is possible due to the structural similarity of their parent nucleus ([Zhang et al., 2015]). Therefore, in this study, the concentrations of the metabolites were calculated via the calibration curve of MC. The main pharmacokinetic parameters of MC and its metabolites were calculated via a non-compartmental model with the pharmacokinetic software, DAS (ver. 2.0, Chinese Pharmacology Association, Shanghai, China). […]

[2] = Stability of MC in rat plasma QC samples under storage conditions; assay type: in vitro ADME; details: for Stability (re, %) 20 °C–25 °C/24 h / Stability (re, %) −20 °C/30 days / Stability (re, %) Freeze-thaw (3 cycles): n = 3; for Stability (re, %) Freeze-thaw (3 cycles): −20 °C to ambient temperature
Experimental: MC, accurately weighted, was firstly dissolved in methanol to acquire the standard stock solutions (250 μg/mL). A set of standard working solutions (25,000.0 ng/mL, 12,500.0 ng/mL, 2,500.0 ng/mL, 1,250.0 ng/mL, 625.0 ng/mL, 250.0 ng/mL, 125.0 ng/mL, 31.25 ng/mL) were obtained by diluting the stock solutions with methanol. An aliquot of 20 µL of these standard working solutions was then spiked into 1.5 mL polythene tubes and the solvent of methanol was evaporated at room temperature. Afterwards, the calibration standards (5,000.0 ng/mL, 2,500.0 ng/mL, 500.0 ng/mL, 250.0 ng/mL, 125.0 ng/mL, 50.0 ng/mL, 25.0 ng/mL, 6.25 ng/mL) were obtained by adding blank plasma (100 µL) into the tubes and fully mixing. The preparation method of quality control samples (QCs, 25.0 ng/mL, 1,250.0 ng/mL, 4,000.0 ng/mL) was identical with that of the calibration standards. All solutions were stored at 4 °C until further use.
All method validation procedures were performed strictly in accordance with the US FDA Guidance for Industry on Bioanalytical Method Validation ([FDA, 2018]). The assessment of selectivity was performed via comparing chromatograms among blank rat plasma (six different batches) and rat plasma spiked with MC and IS. The evaluation of linearity was carried out using weighted (1/x^2) least-squares analysis of two sets of calibration standards. Three different concentrations of Quality Check: QCs (n = 6) standards were used and detected on three different days to evaluate the intra-day and inter-day precision and the accuracy. Similarly, matrix effect and extraction recovery were assessed using three different concentrations of QCs (n = 6). The matrix effect was evaluated via calculating the peak area ratio of MC in post-spiked QCs and the solvent-substituted samples with same concentration. The extraction recovery was assessed via calculating the peak area ratio of MC in pre-spiked and post-spiked QCs. The stability of MC was examined using three concentrations of QCs (n = 3) under three different storage conditions, including freeze-thaw stability (three cycles from −20 °C to ambient temperature), short-term stability (storage at 20 °C–25 °C for 24 h), and long-term stability (storage at −20 °C for 30 days).
The stability was estimated by analyzing QCs (25.0, 1,250.0, and 4,000.0 ng/mL) after storing in three different conditions: three freeze-thaw cycles (−20 °C to ambient temperature), 20 °C–25 for 24 h, and - 20 °C for 30 days. As presented in Table 5, the deviations in the stabilities of MC ranged from - 8.5% to 13.5% under the three different storage conditions.

[3] = design: method as in Hasa et al., 2013; details: ref Hasa et al., 2013; cited from earlier work

Compound `Nc1nccc(-c2cn(OS(=O)(=O)O)c3ccc(Br)cc23)n1` [M2] has a Tmax [1] of 0.5 ± 0.27 h, a half-life [1] of 4.4 ± 2.7 h and a Cmax [1] of 6.4 ± 2 µM. For the same compound, the AUC(0-t) [1] was 20.9 ± 8.5 µM·h and the “AUC0–48h fold less than that of MC” value [1] was 11.1 fold.
With `Nc1nccc(-c2cn(O)c3ccc(Br)cc23)n1` [M3] the “Concentration in plasma samples relative to limit of quantification” value [1] was “lower than the limit of quantification”.
In the case of `ONc1nccc(-c2cn(O)c3ccc(Br)cc23)n1` [M8], the “Concentration in plasma samples relative to limit of quantification” value [1] is reported as “lower than the limit of quantification”.
With `O=S(=O)(O)ONc1nccc(-c2c[nH]c3ccc(Br)cc23)n1` [M11] the Tmax [1] was 0.88 ± 0.63 h, the half-life [1] was 3.4 ± 2.2 h and the Cmax [1] was 1.6 ± 0.6 µM. The AUC(0-t) [1] was 4 ± 1.1 µM·h and the “AUC0–48h fold less than that of MC” value [1] was 58.7 fold.
In the case of `Nc1nccc(-c2c[nH]c3ccc(Br)cc23)n1` [MC, Meridianin C], the Tmax [1] is reported as 0.75 ± 0.27 h, the half-life [1] is reported as 17.7 ± 14.1 h and the Cmax [1] is reported as 44.8 ± 7 µM. The AUC(0-t) [1] was 232 ± 85.9 µM·h, the “Stability (re, %) 20 °C–25 °C/24 h” value ([2]; rat plasma, 25.0 ng/mL) was 12.5% and the “Stability (re, %) −20 °C/30 days” value ([2]; rat plasma, 25.0 ng/mL) was 10.6%. The “Stability (re, %) Freeze-thaw (3 cycles)” value ([2]; rat plasma, 25.0 ng/mL) was 13.5%, the “Stability (re, %) 20 °C–25 °C/24 h” value ([2]; rat plasma, 1,250.0 ng/mL) was 7.9% and the “Stability (re, %) −20 °C/30 days” value ([2]; rat plasma, 1,250.0 ng/mL) was 5.2%. For the same compound, the “Stability (re, %) Freeze-thaw (3 cycles)” value ([2]; rat plasma, 1,250.0 ng/mL) was 12.6%, the “Stability (re, %) 20 °C–25 °C/24 h” value ([2]; rat plasma, 4,000.0 ng/mL) was −6.8% and the “Stability (re, %) −20 °C/30 days” value ([2]; rat plasma, 4,000.0 ng/mL) was −8.5%. For the same compound, the “Stability (re, %) Freeze-thaw (3 cycles)” value ([2]; rat plasma, 4,000.0 ng/mL) was 9.3% and the “Stability in rat plasma (in words)” value ([2]; three freeze-thaw cycles, 20 °C–25 °C for 24 h, −20 °C for 30 days) was “stable”.
In the case of `CC[C@]12CCCN3CCc4c(n(c5ccccc45)[C@@](O)(C(=O)OC)C1)[C@@H]32` [vincamine], the Bioavailability [3] is given as “low bioavailability”.
